Activity calls are given as the source filed them.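 Rule for the calls: active = compounds giving half or more protection of infected cells from virus-caused growth loss, again on retest; inactive = the rest.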 Where a SMILES comes first, the peptide text is derived from it. [ ]: non-standard residue; d: D form. The star is where a group is joined. ξ: configuration not given here. Boc = CC(C)(C)OC(=O)*; ξV = CC(C)C(N)C(=O)O; OBn = c1ccc(CO*)cc1
Test system: CEM cells HIV-1 protection, formazan growth assay
Experiment: NCI AIDS Antiviral Assay
Details: for IC50: measured here: growth of uninfected CEM cells
Protocol: The ability of compounds to protect human CEM cells from HIV-1 infection is measured as a screen for new compounds capable of inhibiting the HIV virus. Five concentrations of drug were tested on uninfected and infected cells and cell growth was measured using a soluble formazan assay. […] Compounds that provided at least 50% protection were retested. Compounds that provided at least 50% protection on retest were listed as moderately active. Compounds that reproducibly provided 100% protection were listed as confirmed active. […] Note that the inability to provide protection could be due to toxicity.

Row | Structure (SMILES) | EC50 | IC50 | outcome
1 | NC(=S)N/N=C(/CC(=O)c1ccc([N+](=O)[O-])cc1)C(=O)Nc1ncc([N+](=O)[O-])s1 | > 83.2 µM | 81.3 µM | –
2 | COc1ccc2nc(-c3ccccc3)cc(N=[N+]=[N-])c2c1 | – | – | inactive
3 | COC1/C=C/OC2(C)Oc3c(C)c(O)c4c(O)c(c(/C=N/N5CC(C)N(Cc6ccccc6)C(C)C5)c(O)c4c3C2=O)NC(=O)C(C)=C/C=C/C(C)C(O)C(C)C(O)C(C)C(OC(C)=O)C1C (centres undefined) | > 200 µM | 3.09 µM | –
4 | CCc1c(C)c2cc3[nH]c(cc4nc(cc5nc(cc1[nH]2)C(C)=C5CCC(=O)OC)C(CCC(=O)OC)=C4C)c(C)c3CC | – | – | inactive
5 | Clc1ccc2nc(-c3ccc(Cl)c(Cl)c3)cc(-c3ccccc3)c2c1 | > 200 µM | > 200 µM | –
6 | O=c1c2ccccc2c(=O)n2n1-c1cccc(c1)CSSCc1cccc-2c1 | – | – | inactive
7 | CN(C)c1nc(=NCc2ccccn2)ss1 | > 17.4 µM | 9.33 µM | –
8 | C1C2CC3C1C1C[S+]3CC21 (centres undefined) | > 380 µM | > 380 µM | –
9 | O=C1NN=C(c2ccc([N+](=O)[O-])cc2)C1n1nc(-c2ccccc2)c2ccccc2c1=O (centres undefined) | > 61.7 µM | > 61.7 µM | –
10 | CC(=O)O[C@H]1CC[C@H]2[C@@H]3[C@H](C)CC4=CC(=O)CCC4[C@H]3CC[C@]12C (some centres undefined) | > 200 µM | 69.2 µM | –
11 | c1cncc(CN2CCCCCC2)c1 | – | – | inactive
12 | O=c1sccc2ccccc12 | > 417 µM | > 417 µM | –
13 | CC(=O)/C(=C\n1c(=S)[nH]c2ccccc21)C(=O)Nc1ccccc1 | > 200 µM | > 200 µM | –
14 | O=C(NCCO)c1c(CN(CCO)CCO)n([O-])c2ccccc2[n+]1=O | > 490 µM | 457 µM | –
15 | Cc1c(CCCl)c(N=[N+]=[N-])n2c(nc3ccccc32)c1C#N | > 200 µM | 11 µM | –
16 | COc1ccc2[nH]c3c(c2c1)[C@H]1CCC(C(C)(C)C)C[C@H]1[C@H]1C(=O)N(c2ccccc2)C(=O)[C@@H]31 (some centres undefined) | > 7.94 µM | > 7.94 µM | –
17 | NC(=O)CNC(=O)c1ccccc1SC(=O)OCCCCCl | 26.3 µM | > 200 µM | –
18 | O=S(=O)(Nc1nnc2ccc3ccccc3n12)c1ccc(F)cc1S | > 200 µM | 110 µM | –
19 | COc1ccc(-c2cc(-c3ccccc3)[nH]c(=O)c2N(C)C)cc1 | > 58.9 µM | > 58.9 µM | –
20 | O=[N+]([O-])c1ccccc1N=Nc1c(O)[nH]c2ccc(S(=O)(=O)O)cc12 | > 200 µM | > 200 µM | –

Row | Structure (SMILES) | EC50 | IC50 | outcome
21 | COc1c(Cl)cc(C(=CCN[C@H]2CC[C@@]3(C)[C@@H](CC[C@@H]4[C@@H]3CC[C@]3(C)[C@@H]([C@H](C)CCCC(C)C)CC[C@@H]43)C2)c2cc(Cl)c(OC)c(C(=O)O)c2)cc1C(=O)O | > 50.1 µM | > 50.1 µM | –
22 | O=C(O)c1[nH]c2c(=O)[nH]c(=O)[nH]c2c1Br | – | – | inactive
23 | O=C(O)CCCCSCCCCC(=O)O | > 1070 µM | > 1070 µM | –
24 | CC1=C(C)C(=O)C(C2=C(C3=CC(=O)C(C)=C(C)C3=O)C(=O)c3ccccc3C2=O)=CC1=O | > 200 µM | 5.62 µM | –
25 | N#Cc1cc2c(cc1C#N)SCCSCCCSCCS2 | – | – | inactive
26 | Cc1cccc(O)c(=O)c1 | – | – | inactive
27 | CC1=C[C@@H]2c3cc(c(O)cc3O)C(=O)[C@H]3C(c4ccc(O)cc4O)CC(C)=C[C@@H]3c3cc(c(O)cc3O)C(=O)C2C(c2ccc(O)cc2O)C1 (some centres undefined) | – | – | inactive
28 | COc1nc(N)c(C#N)c(C#N)c1C#N | > 200 µM | > 200 µM | –
29 | CCOC(=O)N1CCN(c2ccc3c(C)cc(C)nc3n2)CC1 | > 200 µM | > 200 µM | –
30 | C/C(=N\NC(=O)CC(=O)N(C(=O)c1ccccc1Cl)c1ccc(C)cc1)c1ccc(Cl)cc1 | > 14.1 µM | > 14.1 µM | –
31 | O=S(=O)(O)c1ccc(Nc2ccnc3ccccc23)cc1 | > 200 µM | > 200 µM | –
32 | CCN(CC)CCNC(=O)c1ccccc1Nc1c(Cl)cccc1Cl | > 200 µM | 27.5 µM | –
33 | C=C1C(=O)OC2C=CCCCC12 (centres undefined) | > 53.7 µM | 4.68 µM | –
34 | Cc1ccc(C)c(N2C(=O)C(=O)C(c3nc4ccccc4o3)/C(=N\NC(=O)c3ccccc3O)C2=O)c1 (centres undefined) | – | – | inactive
35 | COc1cc([N+](=O)[O-])c(S(=O)(=O)O)cc1-n1nc(-c2ccccc2)n[n+]1-c1cc(S(=O)(=O)[O-])c([N+](=O)[O-])cc1OC | > 100 µM | > 100 µM | –
36 | COc1cccc2c1C(=O)c1c(O)c3c(c(O)c1C2=O)CC(O)(C(O)CO)CC3OC1CC(N2CCOCC2)C(O)C(C)O1 (centres undefined) | > 0.2 µM | 0.00355 µM | –
37 | O=C1c2cc(Oc3ccccc3)c(S(=O)(=O)O)c(S(=O)(=O)O)c2C(=O)c2c(O)ccc(O)c21 | > 200 µM | 72.4 µM | –
38 | CC(=O)OCC1CCC(=C2C(=O)OC(C)(C)OC2=O)N1 (centres undefined) | > 200 µM | > 200 µM | –
39 | CC(C)C(NC(=O)CNC(=O)OC(C)(C)C)C(=O)OCc1ccccc1 (stereo not drawn) (Boc-Gly-[ξV]-OBn) | > 200 µM | 148 µM | –
40 | O=c1sc2ncccc2n1-c1ccc([N+](=O)[O-])cn1 | > 91.2 µM | > 91.2 µM | –

Row | Structure (SMILES) | EC50 | IC50 | outcome
41 | COc1cc(C(=O)OC2CC(C)=CC[C@@]3(C)CC[C@](O)(C(C)C)C23)ccc1O (some centres undefined) | > 200 µM | 8.51 µM | –
42 | COc1ccc(C2C(Cl)C(=O)N2NC(=O)c2ccc(N)cc2)cc1 (centres undefined) | > 200 µM | > 200 µM | –
43 | O=c1[nH]n(Cc2ccccc2CCl)c2ccc([N+](=O)[O-])cc12 | > 200 µM | 38 µM | –
44 | C[Si](C)(C)c1ccc(-c2sc(-c3ccc([Si](C)(C)C)s3)c3c2C[Si]2(C3)Cc3c(-c4ccc([Si](C)(C)C)s4)sc(-c4ccc([Si](C)(C)C)s4)c3C2)s1 | > 5.75 µM | > 5.75 µM | –
45 | Cc1ccc(/C=C2\CNC/C(=C\c3ccc(C)cc3)C2=O)cc1 | > 3.98 µM | > 3.98 µM | –
46 | CCOC(=O)CC(C)CCO (centres undefined) | > 1550 µM | > 1550 µM | –
47 | COc1cc(CN(C)N2C(=O)c3cccc4cc([N+](=O)[O-])cc(c34)C2=O)cc(OC)c1OC | – | – | inactive
48 | O=[N+]([O-])c1ccc2ncccc2c1CCc1c([N+](=O)[O-])ccc2ncccc12 | – | – | inactive
49 | COc1ccc(Nc2ccc3ccccc3c2-c2c(O)ccc3ccccc23)cc1 | > 200 µM | 10.5 µM | –
50 | CNC(=O)OC(COC)CN1CCN(c2ccccc2C)CC1 (centres undefined) | > 200 µM | > 200 µM | –
51 | Cc1cc(Cl)nc2nc(Cl)c(N)cc12 | – | – | inactive
52 | CC(=O)O[C@@H]1CO[C@H]2O[C@H]3[C@@H](C(C=O)=C[C@H](O)[C@@H]4C5=C(C(C)C)CC[C@]5(C)CC[C@@]34C)[C@@]2(O)C1=O | > 0.575 µM | 0.0759 µM | –
53 | Oc1ccc(/C=C\c2cnccn2)cc1 | > 251 µM | 33.9 µM | –
54 | CCC(=O)OC1CCn2c1nc1c2C(=O)C(C)=C(NC(C)=O)C1=N (centres undefined) | > 200 µM | 3.55 µM | –
55 | O=C(O)CN(c1cccc(Cl)c1)S(=O)(=O)c1ccccc1 | – | – | inactive
56 | CCOC(=O)C1=C(C)NC(=S)NC1c1ccccc1 (centres undefined) | > 93.3 µM | > 93.3 µM | –
57 | O=C(Nc1c(Cl)cc([N+](=O)[O-])cc1Cl)/C(=N\Nc1cccc(Cl)c1)c1c(O)c2ccccc2oc1=O | > 24.5 µM | > 24.5 µM | –
58 | CCCCCCCC(=O)[O-].N.N.N.N.N.[Co+3].[O-][Cl+3]([O-])([O-])[O-] | – | – | inactive
59 | Oc1c([Si](c2ccccc2)(c2ccccc2)c2ccccc2)cc2ccccc2c1-c1c(O)c([Si](c2ccccc2)(c2ccccc2)c2ccccc2)cc2ccccc12 | > 50.1 µM | > 50.1 µM | –
